According to patent US20110039847A1, “AMIDE DERIVATIVES AS SIRTUIN MODULATORS” (Sirtris Pharmaceuticals, Inc, priority 2007, published 2011):

Molecular target: T1, SIRT1 (Homo sapiens, UniProt Q96EB6)
T1 sequence (Q96EB6 1-747): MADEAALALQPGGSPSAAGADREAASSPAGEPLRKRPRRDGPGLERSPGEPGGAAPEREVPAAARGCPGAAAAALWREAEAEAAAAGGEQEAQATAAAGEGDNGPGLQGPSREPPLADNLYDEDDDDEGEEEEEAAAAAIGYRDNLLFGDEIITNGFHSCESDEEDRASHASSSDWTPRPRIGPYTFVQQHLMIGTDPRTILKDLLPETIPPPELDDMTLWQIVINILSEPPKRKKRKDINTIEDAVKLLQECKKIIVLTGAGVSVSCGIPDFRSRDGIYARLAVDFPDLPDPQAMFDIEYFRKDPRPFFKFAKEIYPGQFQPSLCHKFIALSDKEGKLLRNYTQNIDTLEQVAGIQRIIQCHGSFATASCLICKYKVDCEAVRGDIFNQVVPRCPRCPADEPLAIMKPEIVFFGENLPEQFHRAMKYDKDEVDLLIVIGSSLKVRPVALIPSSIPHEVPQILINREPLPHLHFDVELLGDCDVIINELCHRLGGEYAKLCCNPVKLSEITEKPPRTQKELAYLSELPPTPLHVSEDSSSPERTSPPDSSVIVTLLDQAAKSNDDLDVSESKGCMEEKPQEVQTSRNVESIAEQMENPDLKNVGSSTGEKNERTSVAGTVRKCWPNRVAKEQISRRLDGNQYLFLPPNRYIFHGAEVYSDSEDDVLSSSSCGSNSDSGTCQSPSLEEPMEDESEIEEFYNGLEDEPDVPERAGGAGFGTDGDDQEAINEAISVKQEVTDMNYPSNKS
Assay: Mass spectrometry based SIRT1 deacetylation (activation) assay
Format: biochemical
Details: 0.5 μM peptide substrate, 120 μM βNAD+, 10 nM SIRT1, 25 min at 25° C.; for Emax: 25 min, read-out: % Fold Act. (percent maximum fold activation)

EC1.5	Emax [%]	SMILES
A (EC1.5≦1 uM)	≥ 300	CCN(CCN(C)C)c1cc(C(=O)Nc2ccccc2-c2nnc(C(=O)N3CCOCC3)s2)nc(-c2ccccc2)n1 [Compound 87]
C (EC1.5>10 uM)	150 to 300	CN(C)CCNc1cc(C(=O)Nc2ccccc2)nc(-c2ccccc2)n1 [Compound 6]
B (EC1.5>1 and ≦10 uM)	150 to 300	CN(C)CCNc1cc(C(=O)Nc2ccccc2C(=O)Nc2ccccc2S(C)(=O)=O)nc(-c2ccccc2)n1 [Compound 163, 6-(2-(dimethylamino)ethylamino)-N-(2-(2-(methylsulfonyl)phenylcarbamoyl)phenyl)-2-phenylpyrimidine-4-carboxamide]
A (EC1.5≦1 uM)	≥ 300	CCN(CCN(C)C)c1cc(C(=O)Nc2ccccc2-c2nnc(-c3ccncc3)s2)nc(-c2ccccc2)n1 [Compound 82]
A (EC1.5≦1 uM)	150 to 300	CCOC(=O)c1nnc(-c2ccccc2NC(=O)c2cc(N(CC)CCN(C)C)nc(-c3ccccc3)n2)s1 [Compound 59]
A (EC1.5≦1 uM)	≥ 300	CCN(CCN(C)C)c1cc(C(=O)Nc2ccccc2-c2nnc(C(C)C)s2)nc(-c2ccccc2)n1 [Compound 83]
A (EC1.5≦1 uM)	≥ 300	CN(C)CCNc1cc(C(=O)Nc2ccccc2-c2nncs2)nc(-c2ccccc2)n1 [Compound 26]
A (EC1.5≦1 uM)	≥ 300	CN(C)CCNc1cc(C(=O)Nc2ccccc2-c2c[nH]c(-c3ccccc3)n2)nc(-c2ccccc2)n1 [Compound 15]
B (EC1.5>1 and ≦10 uM)	150 to 300	CCN(CCN(C)C)c1cc(C(=O)Nc2ccccc2-c2nnc(CC(C)C)s2)nc(-c2ccccc2)n1 [Compound 80]
A (EC1.5≦1 uM)	≥ 300	O=C(Nc1ccccc1-c1nnc(C(=O)N2CCOCC2)s1)c1cc(NC(CO)CO)nc(-c2ccccc2)n1 [Compound 90]
B (EC1.5>1 and ≦10 uM)	≥ 300	Cc1nnc(-c2ccccc2NC(=O)c2cc(NCCN(C)C)nc(-c3ccccc3)n2)o1 [Compound 20]
A (EC1.5≦1 uM)	150 to 300	CN(C)CCN(C)c1cc(C(=O)Nc2ccccc2-c2nnc(-c3ccccc3)s2)nc(-c2ccccc2)c1 [Compound 35]
B (EC1.5>1 and ≦10 uM)	150 to 300	CN(C)CCNc1cc(C(=O)Nc2ccccc2C(=O)Nc2cc(Cl)ccc2Cl)nc(-c2ccccc2)n1 [Compound 161, N-(2-(2,5-dichlorophenylcarbamoyl)phenyl)-6-(2-(dimethylamino)ethylamino)-2-phenylpyrimidine-4-carboxamide]
C (EC1.5>10 uM)	150 to 300	CN(C)CCNc1cc(C(=O)Nc2ccccc2C(=O)Nc2ccc(Cl)c(Cl)c2)nc(-c2ccccc2)n1 [Compound 153, N-(2-(3,4-dichlorophenylcarbamoyl)phenyl)-6-(2-(dimethylamino)ethylamino)-2-phenylpyrimidine-4-carboxamide]
A (EC1.5≦1 uM)	≥ 300	CCN(CCN(C)C)c1cc(C(=O)Nc2ccccc2C(=O)N[C@@H]2CCCC[C@H]2O)nc(-c2ccccc2)n1 [Compound 171, 6-((2-(dimethylamino)ethyl)(ethyl)amino)-N-(2-((1R,2R)-2-hydroxycyclohexylcarbamoyl)phenyl)-2-phenylpyrimidine-4-carboxamide]
C (EC1.5>10 uM)	≥ 300	COCCNC(=O)c1ccccc1NC(=O)c1cc(NCCN(C)C)nc(-c2ccccc2)n1 [Compound 122, 6-(2-(dimethylamino)ethylamino)-N-(2-(2-methoxyethylcarbamoyl)phenyl)-2-phenylpyrimidine-4-carboxamide]
A (EC1.5≦1 uM)	≥ 300	CNCCN(C)c1cc(C(=O)Nc2ccccc2-c2nncs2)nc(-c2ccccc2)n1 [Compound 40]
A (EC1.5≦1 uM)	150 to 300	CN(C)CCNc1cc(C(=O)Nc2ccccc2C(=O)Nc2ccccn2)nc(-c2ccccc2)n1 [Compound 158, 6-(2-(dimethylamino)ethylamino)-2-phenyl-N-(2-(pyridin-2-ylcarbamoyl)phenyl)pyrimidine-4-carboxamide]

EC1.5	Emax [%]	SMILES
A (EC1.5≦1 uM)	≥ 300	CCCc1nnc(-c2ccccc2NC(=O)c2cc(N(CC)CCN(C)C)nc(-c3ccccc3)n2)s1 [Compound 79]
A (EC1.5≦1 uM)	150 to 300	O=C(Nc1ccccc1-c1nnc(C(=O)N2CCOCC2)s1)c1cc(OC[C@@H](O)CO)nc(-c2ccccc2)n1 [Compound 91]
A (EC1.5≦1 uM)	150 to 300	O=C(Nc1ccccc1C(=O)c1nccs1)c1cc(N2CCOCC2)nc(-c2ccccc2)n1 [Compound 176]
A (EC1.5≦1 uM)	≥ 300	CN(C)CCNc1cc(C(=O)Nc2ccccc2C(=O)Nc2ccncc2)nc(-c2ccccc2)n1 [Compound 156, 6-(2-(dimethylamino)ethylamino)-2-phenyl-N-(2-(pyridin-4-ylcarbamoyl)phenyl)pyrimidine-4-carboxamide]
A (EC1.5≦1 uM)	150 to 300	CCN(CCN(C)C)c1cc(C(=O)Nc2ccccc2-c2ncc(C(C)(C)C)s2)nc(-c2ccccc2)n1 [Compound 63]
A (EC1.5≦1 uM)	≥ 300	CN(C)CCNC(=O)c1nnc(-c2ccccc2NC(=O)c2cc(NCCN(C)C)nc(-c3ccccc3)n2)s1 [Compound 58]
C (EC1.5>10 uM)	150 to 300	CN(C)CCNc1cc(C(=O)Nc2ccccc2C(=O)N(C)c2ccccc2)nc(-c2ccccc2)n1 [Compound 151, 6-(2-(dimethylamino)ethylamino)-N-(2-(methyl(phenyl)carbamoyl)phenyl)-2-phenylpyrimidine-4-carboxamide]
A (EC1.5≦1 uM)	150 to 300	COCCN(CCOC)c1cc(C(=O)Nc2ccccc2-c2nnc(N3CCOCC3)s2)nc(-c2ccccc2)n1 [Compound 106]
A (EC1.5≦1 uM)	≥ 300	CCN(CCN(C)C)c1cc(C(=O)Nc2ccccc2-c2nnc(-c3ccccn3)s2)nc(-c2ccccc2)n1 [Compound 74]
B (EC1.5>1 and ≦10 uM)	≥ 300	CN(C)CCNc1cc(C(=O)Nc2ccccc2-c2ncc(C(C)(C)C)o2)nc(-c2ccccc2)c1 [Compound 31]
A (EC1.5≦1 uM)	≥ 300	CNCCN(C)c1cc(C(=O)Nc2ccccc2-c2nnc(-c3ccccc3)s2)nc(-c2ccccc2)c1 [Compound 44]
C (EC1.5>10 uM)	≥ 300	CN(C)CCNc1cc(C(=O)Nc2ccccc2C(=O)N2CCCC2)nc(-c2ccccc2)n1 [Compound 120, 6-(2-(dimethylamino)ethylamino)-2-phenyl-N-(2-(pyrrolidine-1-carbonyl)phenyl)pyrimidine-4-carboxamide]
A (EC1.5≦1 uM)	150 to 300	O=C(Nc1ccccc1-c1nnc(N2CCOCC2)s1)c1cc(N2CCOCC2)nc(-c2ccccc2)n1 [Compound 100]
B (EC1.5>1 and ≦10 uM)	150 to 300	CN(C)CCNc1cc(C(=O)Nc2ccccc2-c2csc(-c3ccccc3)n2)nc(-c2ccccc2)n1 [Compound 12]
A (EC1.5≦1 uM)	≥ 300	CN1CCN(c2cc(C(=O)Nc3ccccc3-c3nncs3)nc(-c3ccccc3)n2)CC1=O [Compound 112]
B (EC1.5>1 and ≦10 uM)	150 to 300	CCCCC(=O)c1ccccc1NC(=O)c1cc(NCCN(C)C)nc(-c2ccccc2)n1 [Compound 127]
B (EC1.5>1 and ≦10 uM)	150 to 300	CN(C)CCNc1cc(C(=O)Nc2ccccc2-c2ncc(C(C)(C)C)o2)nc(-c2ccccc2)n1 [Compound 39]
A (EC1.5≦1 uM)	150 to 300	CCCCc1nnc(-c2ccccc2NC(=O)c2cc(N(CC)CCN(C)C)nc(-c3ccccc3)n2)s1 [Compound 62]
